According to patent US11065277B2, “Method of ameliorating side effects of sickle cell disease treatments” (ALBERT EINSTEIN COLLEGE OF MEDICINE, priority 2015, dated 2021):
Entries after “also recorded” stand apart in the source; their conditions may differ.

Key:
BERK low gamma [1] = test: Systemic vaso-occlusion and systemic flow in low gamma BERK; type: in vivo, mouse
From the text: (§1) Just as with supra-perfusion therapy, a sickle therapy induced toxicity is apparent in the quercetin-based antioxidant therapy of sickle cell disease. […] However, this nearly complete clearance of the vaso-occlusion appears to induces a toxicity to such treated low gamma BERK, as the animal die after six to eight hrs. after infusing quercetin. Accordingly, it was concluded that antisickling, or antioxidant or antiadhesive therapies, need to be combined with anti-anemia therapy to protect the brain tissues from hypoxic effects as the systemic perfusion is improved as vasoconstrictive effects are reduced.
(§2) A lower dosage of the therapeutic that only marginally reduces the severity of the disease as reflected by systemic vaso-occlusion can still moderate the severity of the disease to some degree without creating an oxygen debt in the brain (i.e. the pathology of the disease as reflected by CBF and BOLD, in an organ specific manner).

BERK mice [2] = test: BOLD-RHO (BOLD MRI response to hyperoxia, gray matter); type: in vivo, mouse
Description: BL=baseline, PI=post injection. […] Using BOLD MRI imaging (which is sensitive to the tissue concentration of deoxy-Hb) the sufficiency of oxygenation of cerebral tissues was measured by assessing the change in deoxy-Hb which occurs with administration of a short inhalation bolus of 100% O2.

BERK low gamma [3] = settings: mouse, in vivo, ip
From the text: as §1, §2

BERK mice [4] = test: Cerebral blood flow (CBF) after treatment; type: in vivo, mouse
BERK mice [5] = test: Intravital microscopy of the systemic circulation (shear rate, volumetric flow rate, leukocyte adhesion, sickling); type: in vivo, mouse
[6] = Plasma level after 10% top load infusion; type: in vivo, mouse; settings: low gamma BERK mice, infusion of 6 gm % solution at 10% top load
From the text: Infusion of a 6 gm % solution EAF P3K6 Hb to a low gamma BERK mice at 10% top load results in a presence of 0.3 gm/dl EAF P3K6 Hb in the plasma, the HbS in the RBC being 8 gm/dl.

[7] = low gamma BERK, single dose 20 mg/kg intraperitoneally, three hrs. after infusion
[8] = low gamma BERK, daily oral dosing 100/mg per/kg for 10 days
[9] = BERK low gamma, 50 mg/kg intraperitoneal three times a week
[10] = BERK mice, post injection vs baseline, 10% top-load

NC(=O)NO [hydroxy urea, reference compound]
expression of fetal Hb (BERK low gamma [1]; [7]): without any expression | systemic flow (BERK low gamma [1]; [7]): significant improvement | vaso-occlusion (BERK low gamma [1]; [7]): level close to that of medium gamma BERK

O=c1c2cc(O)c(O)cc2oc2cc(O)c([C@@H]3O[C@H](CO)[C@@H](O)[C@H](O)[C@H]3O)c(O)c12 [mangiferine, reference compound]
therapeutic efficacy for SCD (vaso-occlusion) (BERK low gamma [1]; BERK low gamma): not seen

O=c1c(O)c(-c2ccc(O)c(O)c2)oc2cc(O)cc(O)c12 [quercetin, 2-(3,4-dihydroxyphenyl)-3,5,7-trihydroxy-4H-chromen-4-one]
influence on BOLD (BERK mice [2]; [8]): without any significant influence | toxicity to animals (BERK low gamma [3]; 50 mg/kg): not toxic | time of death after infusing (BERK low gamma [3]; 200 mg/kg): six to eight | influence on CBF (BERK mice [4]; [9]): very little influence | influence on CBF (BERK mice [4]; [8]): without any significant influence | therapeutic efficacy for SCD (vaso-occlusion) (BERK low gamma [1]; BERK low gamma): dose dependent | vaso-occlusion (BERK low gamma [1]; [9]): small attenuation | vaso-occlusion (BERK low gamma [1]; BERK low gamma, 200 mg/kg intraperitoneal, measured 3 hrs after infusion): nearly completely attenuated | improvement of systemic circulation (BERK low gamma [1]; [8]): 60 to 70%

EAF-PEG-Hb: extension arm facilitated hemoglobin molecule having 6 molecules of 3,000 mw polyethylene glycol (PEG) attached thereto
BOLD-RHO (hypoxic stress, brain deoxy-Hb response to hyperoxia) (BERK mice [2]; [10]): No drop in brain deoxy-Hb was detected; also recorded: protected against the decrease in CBF | CBF (BERK mice [4]; [10]): drop in CBF; also recorded: decreased | CBF (BERK mice [4]; low gamma BERK mice, 6 gm % solution at 10% top load): normalize the CBF | Volumetric flow rate / systemic (peripheral) tissue blood flow (BERK mice [5]; BERK / sickle transgenic mice, after 10% topload): still increased | Leukocyte adhesion in systemic post capillary venules (BERK mice [5]; sickle transgenic animals, systemic circulation): still reduced | presence in the plasma [6]: 0.3 gm/dl
